According to patent publication EP2298778A1, “IMIDAZOTHIAZOLE DERIVATIVE HAVING 4,7-DIAZASPIROÝ2.5¨OCTANE RING STRUCTURE” (Daiichi Sankyo Company, Limited, priority 2008, dated 2009):

Assay: Metabolic stability test (microsomal metabolism test)
Type: in vitro ADME
Details: pH 7.4; human-derived liver microsomes, test compound remaining after addition of NADP+ and incubation at 37°C for 30 minutes; read-out: metabolic stability of T/C%
Method in brief: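 Test compound was added as a 3 µM solution to human liver microsomes (0.3–1.5 mgP/mL) in pH 7.4 phosphate buffer with G6P, G6P dehydrogenase and MgCl2. This was preincubated 20 min at 37°C, then 3 mM NADP+ solution was added and incubated 30 min at 37°C. T/C (%) is compound remaining after versus before NADP+ addition.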

remaining at 0.5 h | SMILES
≥ 50% | CC[C@H]1CNC2(CC2)CN1C(=O)[C@@H]1CCCN1C(=O)C1=C(C(C)C)N2C(=N[C@@](C)(c3ccc(Cl)nc3)[C@H]2c2ccc(Cl)c(F)c2)S1 [Example 61, (6S)-7-(1-{[(5R,6S)-5-(4-chloro-3-fluorophenyl)-6-(6-chloropyridin-3-yl)-3-isopropyl-6-methyl-5,6-dihydroimidazo[2,1-b][1,3]thiazol-2-yl]carbonyl}-L-prolyl)-6-ethyl-4,7-diazaspiro[2.5]octane]
≥ 50% | CC[C@@H]1CNC2(CC2)CN1C(=O)[C@@H]1CCCN1C(=O)C1=C(C(C)C)N2C(=N[C@@](C)(c3ccc(Cl)nc3)[C@H]2c2ccc(Cl)c(F)c2)S1 [Example 62, (6R)-7-(1-{[(5R,6S)-5-(4-chloro-3-fluorophenyl)-6-(6-chloropyridin-3-yl)-3-isopropyl-6-methyl-5,6-dihydroimidazo[2,1-b][1,3]thiazol-2-yl]carbonyl}-L-prolyl)-6-ethyl-4,7-diazaspiro[2.5]octane]
≥ 50% | CO[C@@H]1C[C@@H](C(=O)N2CC3(CC3)NC[C@@H]2C)N(C(=O)C2=C(C(C)C)N3C(=N[C@@](C)(c4ccc(Cl)nc4)[C@H]3c3ccc(Cl)c(F)c3)S2)C1 [Example 63, (6S)-7-[(4R)-1-{[(5R,6S)-5-(4-chloro-3-fluorophenyl)-6-(6-chloropyridin-3-yl)-3-isopropyl-6-methyl-5,6-dihydroimidazo[2,1-b][1,3]thiazol-2-yl]carbonyl}-4-methoxy-L-prolyl]-6-methyl-4,7-diazaspiro[2.5]octane]
≥ 50% | CC(C)C1=C(C(=O)N2CCC[C@H]2C(=O)N2CC3(CC3)NC[C@H]2C)SC2=N[C@@](C)(c3ccc(Cl)nc3)[C@@H](c3ccc(Cl)c(F)c3)N21 [Example 64, (6R)-7-(1-{[(5R,6S)-5-(4-chloro-3-fluorophenyl)-6-(6-chloropyridin-3-yl)-3-isopropyl-6-methyl-5,6-dihydroimidazo[2,1-b][1,3]thiazol-2-yl]carbonyl}-L-prolyl)-6-methyl-4,7-diazaspiro[2.5]octane]
≥ 50% | CC(C)C1=C(C(=O)N2[C@@H](C)CC[C@H]2C(=O)N2CC3(CC3)NC[C@@H]2C)SC2=N[C@@](C)(c3ccc(Cl)nc3)[C@@H](c3ccc(Cl)c(F)c3)N21 [Example 65, (6S)-7-[(5S)-1-{[(5R,6S)-5-(4-chloro-3-fluorophenyl)-6-(6-chloropyridin-3-yl)-3-isopropyl-6-methyl-5,6-dihydroimidazo[2,1-b][1,3]thiazol-2-yl]carbonyl}-5-methyl-L-prolyl]-6-methyl-4,7-diazaspiro[2.5]octane]
≥ 50% | CC(C)C1=C(C(=O)N2C[C@@](C)(O)C[C@H]2C(=O)N2CC3(CC3)NC[C@@H]2C)SC2=N[C@@](C)(c3ccc(Cl)nc3)[C@@H](c3ccc(Cl)c(F)c3)N21 [Example 68, (3S,5S)-1-{[(5R,6S)-5-(4-chloro-3-fluorophenyl)-6-(6-chloropyridin-3-yl)-3-isopropyl-6-methyl-5,6-dihydroimidazo[2,1-b][1,3]thiazol-2-yl]carbonyl}-3-methyl-5-{[(6S)-6-methyl-4,7-diazaspiro[2.5]oct-7-yl]carbonyl}pyrrolidin-3-ol]
≥ 50% | CC(C)C1=C(C(=O)N2C[C@@H]3C[C@@H]3[C@H]2C(=O)N2CC3(CC3)NC[C@@H]2C)SC2=N[C@@](C)(c3ccc(Cl)nc3)[C@@H](c3ccc(Cl)c(F)c3)N21 [Example 69, (65)-7-{[(1S,25,5R)-3-{[(5R,65)-5-(4-chloro-3-fluorophenyl)-6-(6-chloropyridin-3-yl)-3-isopropyl-6-methyl-5,6-dihydroimidazo[2,1-b][1,3]thiazol-2-yl]carbonyl}-3-azabicyclo[3.1.0]hex-2-yl]carbonyl}-6-methyl-4,7-diazaspiro[2.5]octane]
≥ 50% | CC(C)C1=C(C(=O)N2[C@@H]3C[C@@H]3C[C@H]2C(=O)N2CC3(CC3)NC[C@@H]2C)SC2=N[C@@](C)(c3ccc(Cl)nc3)[C@@H](c3ccc(Cl)c(F)c3)N21 [Example 70, (6S)-7-{[(1R,3S,5R)-2-{[(5R,6S)-5-(4-chloro-3-fluorophenyl)-6-(6-chloropyridin-3-yl)-3-isopropyl-6-methyl-5,6-dihydroimidazo[2,1-b][1,3]thiazol-2-yl]carbonyl}-2-azabicyclo[3.1.0]hex-3-yl]carbonyl}-6-methyl-4,7-diazaspiro[2.5]octane]
≥ 50% | CC(C)C1=C(C(=O)N2[C@H](C)CC[C@H]2C(=O)N2CCNC3(CC3)C2)SC2=N[C@@](C)(c3ccc(Cl)nc3)[C@@H](c3ccc(Cl)c(O)c3)N21 [Example 71, 2-chloro-5-[(5R,6S)-6-(6-chloropyridin-3-yl)-2-{[(2S,5R)-2-(4,7-diazaspiro[2.5]oct-7-ylcarbonyl)-5-methylpyrrolidin-1-yl]carbonyl}-3-isopropyl-6-methyl-5,6-dihydroimidazo[2,1-b][1,3]thiazol-5-yl]phenol]
≥ 50% | COc1ccc([C@]2(C)N=C3SC(C(=O)N4[C@H](C)CC[C@H]4C(=O)N4CCNC5(CC5)C4)=C(C(C)C)N3[C@@H]2c2ccc(Cl)c(F)c2)cc1 [Example 72, 7-[(5R)-1-{[(5R,6S)-5-(4-chloro-3-fluorophenyl)-3-isopropyl-6-(4-methoxyphenyl)-6-methyl-5,6-dihydroimidazo[2,1-b][1,3]thiazol-2-yl]carbonyl}-5-methyl-L-prolyl]-4,7-diazaspiro[2.5]octane]
≥ 50% | CCOc1ccc([C@]2(C)N=C3SC(C(=O)N4[C@H](C)CC[C@H]4C(=O)N4CCNC5(CC5)C4)=C(C(C)C)N3[C@@H]2c2ccc(Cl)c(F)c2)cn1 [Example 73, 7-[(5R)-1-{[(5R,6S)-5-(4-chloro-3-fluorophenyl)-6-(6-ethoxypyridin-3-yl)-3-isopropyl-6-methyl-5,6-dihydroimidazo [2,1-b] [1,3]-thiazol-2-yl]-carbonyl}-5-methyl-L-prolyl]-4,7-diazaspiro[2.5]octane]
≥ 50% | CC(C)C1=C(C(=O)N2[C@H](C)CC[C@H]2C(=O)N2CCNC3(CC3)C2)SC2=N[C@@](C)(c3ccc(Cl)nc3)[C@@H](c3ccc(C(F)(F)F)c(F)c3)N21 [Example 74, 7-[(5R)-1-({(5R,6S)-6-(6-chloropyridin-3-yl)-5-[3-fluoro-4-(trifluoromethyl)phenyl]-3-isopropyl-6-methyl-5,6-dihydroimidazo[2,1-b][1,3]thiazol-2-yl}carbonyl)-5-methyl-L-prolyl]-4,7-diazaspiro[2.5]octane]
